Where two headings read alike, the source gives them in different places. Square brackets hold non-standard residues; d marks the D form.
How the values were obtained:
AR42J tumor [1] = conditions: AR42J tumor-bearing nude rats, n = 5 (BZH3), n = 4 (RGD4); for VB (vessel density, fractional blood volume): dynamic PET 60 min, i.v.
Experimental: The AR42J cell line, derived from a rat exocrine pancreas neuroendocrine tumor, was used. Cells were obtained from the European Collection of Cell Cultures and were grown in RPMI 1640 medium supplemented with 2 mmol/L glutamine and 10% fetal calf serum. Adherent cells were dislodged with trypsin/ethylenediaminetetraacetic acid (0.02%: 0.05%, w/v). For PET-studies, 5 × 10^6 cells in 200 μl RPMI without supplements were inoculated subcutaneously in the right hind leg of Wistar rats.
The study included nine AR 42 J tumor-bearing nude rats. We grouped all rats according to PET tracers (B, ^68Ga-BZH3 and R, ^68Ga-RGD4), used in dynamic PET scanning, as noted in Table 1. Dynamic PET studies were performed for 60 min after the intravenous application of 10 to 30 MBq ^68Ga-RGD4 or 20 to 40 MBq ^68Ga-BZH3, using a 28-frame protocol (ten frames of 30 s, five frames of 60 s, five frames of 120 s, and eight frames of 300 s). Two animals can be examined in parallel per scanning by a homemade injector (Figure 2). A dedicated PET-CT system (Biograph™ mCT, 128 S/X, Siemens Co, Erlangen, Germany) with an axial field of view of 21.6 cm with TrueV, operated in a three-dimensional mode, was used for all animal studies. The system provides the simultaneous acquisition of 369 transverse slices with a slice thickness of 0.6 mm. The animals were positioned in the axial plane of the system to maintain the best resolution in the center of the system. All PET images were attenuation-corrected and an image matrix of 400 × 400 pixels was used for iterative image reconstruction (voxel size 1.565 × 1.565 × 0.6 mm) based on the syngo MI PET/CT 2009C software version. After the end of the dynamic series an ultrahigh resolution CT with 85 mA, 80 kV and a pitch of 0.85 cm was performed for attenuation correction of the acquired dynamic emission data. The reconstructed images were converted to SUV images based on the formula [24]: SUV = Tissue concentration (becquerel per gram)/[injected dose ([…]))/body weight (gram)]. The SUV 55 to 60 min post-injection was used for the assessment of both tracers. The SUV images were used for all further quantitative evaluations.
Dynamic PET data were evaluated using the software package PMOD (provided courtesy of PMOD Technologies Ltd., Zuerich, Switzerland). Areas with enhanced tracer uptake on transaxial, coronal, and sagittal images were evaluated visually. A volume of interest consists of several regions of interest over the target area. Irregular regions of interest were drawn manually. A detailed quantitative evaluation of tracer kinetics requires the use of compartmental modeling. A two-tissue-compartment model was used to evaluate the dynamic studies.
In animals, a partial volume correction must be applied to the data due to the small size of the input and tumor volumes of interest (VOIs). Herein, the recovery coefficient was 0.85 for a diameter of 8 mm and 0.32 for a diameter of 3 mm based on phantom measurements as well as the recent parameter settings used with the reconstruction software. For the input function the mean values of the VOI data obtained from the heart were used. We used a preprocessing tool, which allowed a fit of the input curve by a sum of up to three decaying exponentials. The learning-machine two-tissue-compartment model was used for the fitting and provided five parameters: the transport parameters for tracer into and out of the cell, K1 and k2, the parameters for phosphorylation and dephosphorylation of intracellular tracer, k3 and k4, and the fractional blood volume, also called vessel density (VB), which reflects the amount of blood in the VOI. Following compartment analysis, we calculated the global influx of tracer from the compartment data using the formula: influx = (K1 × k3)/(k2 + k3). […] The model parameters were accepted when K1 - k4 was less than 1 and VB exceeded 0. The unit for the rate constants K1 to k4 was 1/min.

ανβ3 = ανβ3 (Homo sapiens, UniProt P05106+P06756); assay: biochemical
AR42J tumor [2] = assay: Dynamic PET, tumor uptake (SUV) in AR42J tumor-bearing nude rats; type: in vivo, rat; conditions: i.v. 20 to 40 MBq (BZH3, n = 5), 10 to 30 MBq (RGD4, n = 4), nude rats
From the text: (§1) Irregular regions of interest were drawn manually.

[3] = as above; type: in vivo, rat; conditions: Wistar (nude), rat, tumor (AR42J), iv, i.v. 20 to 40 MBq (BZH3, n = 5), 10 to 30 MBq (RGD4, n = 4), nude rats, read-out: SUV (standardized uptake value) in tumor
From the text: as §1

[4] = 3D fused PET-CT images; male rat
Experimental: The study included nine AR 42 J tumor-bearing nude rats. We grouped all rats according to PET tracers (B, ^68Ga-BZH3 and R, ^68Ga-RGD4), used in dynamic PET scanning, as noted in Table 1. Dynamic PET studies were performed for 60 min after the intravenous application of 10 to 30 MBq ^68Ga-RGD4 or 20 to 40 MBq ^68Ga-BZH3, using a 28-frame protocol (ten frames of 30 s, five frames of 60 s, five frames of 120 s, and eight frames of 300 s). Two animals can be examined in parallel per scanning by a homemade injector (Figure 2). A dedicated PET-CT system (Biograph™ mCT, 128 S/X, Siemens Co, Erlangen, Germany) with an axial field of view of 21.6 cm with TrueV, operated in a three-dimensional mode, was used for all animal studies. The system provides the simultaneous acquisition of 369 transverse slices with a slice thickness of 0.6 mm. The animals were positioned in the axial plane of the system to maintain the best resolution in the center of the system. […] The SUV images were used for all further quantitative evaluations.
Dynamic PET data were evaluated using the software package PMOD (provided courtesy of PMOD Technologies Ltd., Zuerich, Switzerland). Areas with enhanced tracer uptake on transaxial, coronal, and sagittal images were evaluated visually. […] A detailed quantitative evaluation of tracer kinetics requires the use of compartmental modeling. […]

integrin ανβ3, P06756 = target: T1, integrin ανβ3, P06756; assay: not stated; IC50 of ^68Ga-RGD4 for ανβ3; format, competitor and conditions not told; conditions: remark: other sources report otherwise
T1 chain 1: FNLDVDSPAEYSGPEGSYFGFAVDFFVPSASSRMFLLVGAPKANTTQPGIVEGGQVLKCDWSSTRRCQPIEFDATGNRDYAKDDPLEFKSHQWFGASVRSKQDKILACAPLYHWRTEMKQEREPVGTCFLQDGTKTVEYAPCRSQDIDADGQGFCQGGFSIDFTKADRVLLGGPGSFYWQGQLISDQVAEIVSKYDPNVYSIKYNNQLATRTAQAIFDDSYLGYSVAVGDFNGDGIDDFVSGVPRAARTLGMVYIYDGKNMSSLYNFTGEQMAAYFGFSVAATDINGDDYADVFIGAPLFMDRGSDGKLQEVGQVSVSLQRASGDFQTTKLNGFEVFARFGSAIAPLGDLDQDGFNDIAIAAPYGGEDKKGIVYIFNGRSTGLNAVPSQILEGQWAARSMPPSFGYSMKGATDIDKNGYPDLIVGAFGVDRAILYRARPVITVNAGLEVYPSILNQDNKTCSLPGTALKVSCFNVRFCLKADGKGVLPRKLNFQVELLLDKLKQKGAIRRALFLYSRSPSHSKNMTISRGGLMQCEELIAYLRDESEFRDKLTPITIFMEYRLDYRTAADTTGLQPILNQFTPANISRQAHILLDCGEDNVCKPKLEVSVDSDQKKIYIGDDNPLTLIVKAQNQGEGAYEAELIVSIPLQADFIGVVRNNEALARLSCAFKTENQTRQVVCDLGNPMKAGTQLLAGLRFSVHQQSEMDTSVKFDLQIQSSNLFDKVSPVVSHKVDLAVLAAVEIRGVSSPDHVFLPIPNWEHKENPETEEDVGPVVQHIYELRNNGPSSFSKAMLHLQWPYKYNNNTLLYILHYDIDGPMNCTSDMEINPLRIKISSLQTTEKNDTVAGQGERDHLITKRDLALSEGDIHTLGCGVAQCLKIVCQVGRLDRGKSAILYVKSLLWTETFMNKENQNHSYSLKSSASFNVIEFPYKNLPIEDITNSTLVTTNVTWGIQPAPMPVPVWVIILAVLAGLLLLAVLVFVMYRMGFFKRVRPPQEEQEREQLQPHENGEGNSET
T1 chain 2: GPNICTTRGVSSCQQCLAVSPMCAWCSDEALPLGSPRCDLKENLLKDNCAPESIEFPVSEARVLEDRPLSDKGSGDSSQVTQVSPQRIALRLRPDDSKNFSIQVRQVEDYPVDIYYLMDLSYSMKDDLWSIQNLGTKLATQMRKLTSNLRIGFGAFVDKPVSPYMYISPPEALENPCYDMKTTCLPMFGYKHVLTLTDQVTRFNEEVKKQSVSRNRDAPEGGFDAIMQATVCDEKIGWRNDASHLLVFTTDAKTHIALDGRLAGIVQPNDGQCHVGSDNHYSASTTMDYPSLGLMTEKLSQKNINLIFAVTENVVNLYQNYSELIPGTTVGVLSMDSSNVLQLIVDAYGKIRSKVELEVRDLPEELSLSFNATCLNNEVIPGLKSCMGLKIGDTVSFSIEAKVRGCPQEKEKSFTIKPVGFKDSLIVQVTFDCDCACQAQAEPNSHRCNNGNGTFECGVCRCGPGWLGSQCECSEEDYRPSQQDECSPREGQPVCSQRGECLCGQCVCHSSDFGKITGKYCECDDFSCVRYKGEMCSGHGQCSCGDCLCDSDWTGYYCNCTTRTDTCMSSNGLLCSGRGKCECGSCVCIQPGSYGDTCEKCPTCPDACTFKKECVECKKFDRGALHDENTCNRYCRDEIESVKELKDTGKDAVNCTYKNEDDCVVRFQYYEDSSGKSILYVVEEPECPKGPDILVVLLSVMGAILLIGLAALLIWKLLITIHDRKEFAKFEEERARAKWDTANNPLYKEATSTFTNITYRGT

[5] = median, between tracers P 0.05*

Q: Which results are given for `N=C(N)NCCC[C@@H]1NC(=O)[C@H](CCCCNC(=O)COCCOCCNC(=O)CSC2CC(=O)N(CCCC(=O)NCCCC[C@H](NC(=O)CCCN3C(=O)CC(SCC(=O)NCCOCCOCC(=O)NCCCC[C@@H]4NC(=O)[C@@H](Cc5ccccc5)NC(=O)[C@H](CC(=O)O)NC(=O)CNC(=O)[C@H](CCCNC(=N)N)NC4=O)C3=O)C(=O)NCCCC[C@H](NC(=O)[C@H](CCCCNC(=O)CCCN3C(=O)CC(SCC(=O)NCCOCCOCC(=O)NCCCC[C@@H]4NC(=O)[C@@H](Cc5ccccc5)NC(=O)[C@H](CC(=O)O)NC(=O)CNC(=O)[C@H](CCCNC(=N)N)NC4=O)C3=O)NC(=O)CCCN3C(=O)CC(SCC(=O)NCCOCCOCC(=O)NCCCC[C@@H]4NC(=O)[C@@H](Cc5ccccc5)NC(=O)[C@H](CC(=O)O)NC(=O)CNC(=O)[C@H](CCCNC(=N)N)NC4=O)C3=O)C(=O)N[C@@H](CCCCNC(=O)CN3CCN(CC(=O)O)CCN(CC(=O)O)CCN(CC(=O)O)CC3)C(N)=O)C2=O)NC(=O)[C@@H](Cc2ccccc2)NC(=O)[C@H](CC(=O)O)NC(=O)CNC1=O` (some centres unmarked) [^68Ga-RGD4, metal not drawn]?
A: VB (vessel density, fractional blood volume) (AR42J tumor [1]; maximum): 0.0713; K1 (transport into the cell; associated with receptor binding) (AR42J tumor [1]; maximum): 0.3195 min⁻¹; RBP (receptor binding potential) (AR42J tumor [1]; maximum): 0.0514; k2 (displacement from the receptor) (AR42J tumor [1]; maximum): 0.6152 min⁻¹; k3 (cellular internalisation) (AR42J tumor [1]; maximum): 0.1352 min⁻¹; k4 (externalization) (AR42J tumor [1]; maximum): 0.0504 min⁻¹; VB (vessel density, fractional blood volume) (AR42J tumor [1]; mean): 0.0582; K1 (transport into the cell; associated with receptor binding) (AR42J tumor [1]; mean): 0.2739 min⁻¹; RBP (receptor binding potential) (AR42J tumor [1]; mean): 0.0453; k2 (displacement from the receptor) (AR42J tumor [1]; mean): 0.5386 min⁻¹; k3 (cellular internalisation) (AR42J tumor [1]; mean): 0.1097 min⁻¹; k4 (externalization) (AR42J tumor [1]; mean): 0.0443 min⁻¹; VB (vessel density, fractional blood volume) (AR42J tumor [1]; [5]): 0.0574; RBP (receptor binding potential) (AR42J tumor [1]; median, between tracers P 0.0275*): 0.0442; K1 (transport into the cell; associated with receptor binding) (AR42J tumor [1]; [5]): 0.2728 min⁻¹; k4 (externalization) (AR42J tumor [1]; [5]): 0.0442 min⁻¹; k2 (displacement from the receptor) (AR42J tumor [1]; median, between tracers P 0.4624): 0.5721 min⁻¹; k3 (cellular internalisation) (AR42J tumor [1]; median, between tracers P 0.8065): 0.1180 min⁻¹; VB (vessel density, fractional blood volume) (AR42J tumor [1]; minimum): 0.0468; K1 (transport into the cell; associated with receptor binding) (AR42J tumor [1]; minimum): 0.2304 min⁻¹; RBP (receptor binding potential) (AR42J tumor [1]; minimum): 0.0414; k2 (displacement from the receptor) (AR42J tumor [1]; minimum): 0.3952 min⁻¹; k3 (cellular internalisation) (AR42J tumor [1]; minimum): 0.0678 min⁻¹; k4 (externalization) (AR42J tumor [1]; minimum): 0.0382 min⁻¹; IC50 (ανβ3): 4.97 µM; SUV (standardized uptake value) in tumor (AR42J tumor [2]; maximum, 55 to 60 min post-injection): 1.3084; SUV (standardized uptake value) in tumor (AR42J tumor [2]; median, 55 (56) to 60 min post-injection, between tracers P 0.8065, listed as 68Ga-RGD tetramer): 0.99; SUV (standardized uptake value) in tumor (AR42J tumor [2]; minimum, 55 to 60 min post-injection): 0.7833; SUV ([3]; mean, 55 to 60 min post-injection): 1.02 SUV; SUV ([3]; median, 55 (56) to 60 min post-injection, between tracers P 0.8065): 0.989 SUV; tracer uptake in other sites [4]: heart (exhibit for ^68Ga-RGD4), liver, kidney, urinary bladder, and testicles

Q: For cyclo(RGD[dF]K) (not fully specified (residue 5); also: tetramer on DOTA-Mal4 core, 68Ga on DOTA) [^68Ga-RGD tetramer (^68Ga-labelled DOTA-comprising RGD tetramer)], which IC50 (integrin ανβ3, P06756) is on record?
A: 4.97 µM
